Tested on: MPTP-lesioned marmoset model of Parkinson's disease
Assay: L-DOPA-induced fluctuations in locomotion in the MPTP-lesioned marmoset model of Parkinson's disease
Assay type: in vivo, Marmosets (Callithrix jacchus)
Details: 8-OH PIPAT 10 mg/kg co-administered with L-DOPA 8 mg/kg, locomotion assessed every 5 minutes over six hours
Procedure: The effect of the 5-HT1a-receptor agonist 8-OH-PIPAT on L-DOPA-induced fluctuations in locomotion was assessed in the MPTP-lesioned marmoset model of Parkinson's disease.
Marmosets (Callithrix jacchus) (bred in a closed colony at the University of Manchester) are rendered parkinsonian by subcutaneous injection of 2 mg kg^−1 MPTP for 5 consecutive days. The marmosets are allowed to recover for a minimum of 10 weeks until their parkinsonism becomes stable.
A quantitative assessment of locomotor activity was assessed every 5 minutes for the duration of the experiment using computer-based activity monitors.
Locomotion was measured over a six hour period using Benwick activity monitors. These locomotion monitors consist of a visually-shielded open-field arena, the perimeter of which is surrounded by a series of infra-red beams arranged at 5 cm intervals. PC-based software (Amlogger) assesses the number of beams broken. The number of beams broken as part of a locomotor movement (mobile counts) was measured.
Marmosets were split into two groups. The first group received L-DOPA (8 mg/kg) and vehicle for 8-OH PIPAT only whereas the second group received L-DOPA (8 mg/kg) and 8-OH PIPAT (10 mg/kg).

CCCN(C/C=C/I)C1CCc2cccc(O)c2C1 (racemic) [8-OH-PIPAT, (RS)-trans-8-hydroxy-2-[N-n-propyl-N-(3′-iodo-2′-propenyl)amino]tetralin]
L-DOPA-stimulated 'on-time' (locomotor activity, mobile counts): increase in L-DOPA-stimulated ‘on-time’

Reference: US9668995B2, “Treatment of motor fluctuations” (Motac Neuroscience Limited, priority 2000, dated 2017)
